First: COc1ccc(N2CCN(c3ncc(-n4cn[nH]c4=O)cn3)CC2)cc1
Second: Cc1c(C)c(N2CCN(c3ccc(F)cc3)CC2)c(C)c2c1OC(C)C2 (stereo unspecified)
The melting point of the first is higher: 272 °C for the first, 137 to 138 °C for the second.

Compared with `CCc1nc(N)nc(N)c1-c1ccc(NC)c([N+](=O)[O-])c1`, `CCOC(=O)c1nc(-c2ccc([N+](=O)[O-])cc2)[nH]c1-c1ccc(N(C)C)cc1` is lower in melting point: 262 to 265 °C for the first, 240 to 242 °C for the second.

Compared with `CNC(=C[N+](=O)[O-])NCc1cnc(Cl)s1`, `C=CCNC(=O)NNC(=O)c1cccnc1` is lower in melting point: 181 °C for the first, 165 to 167 °C for the second.

First: CCCCN(CCCC)c1ccc(C=CC=Cc2ccc(C=CC3=C(C#N)C(=C(C#N)C#N)OC3(C)C(F)(F)F)s2)c(OC)c1 (stereo unspecified)
Second: CCOC(=O)/C=C/c1cc(-c2ccc(C(F)(F)F)cc2)oc1CC
The melting point of the first is higher: 161 to 162 °C for the first, 82 to 83 °C for the second.

First: O=C(O)CCCCCCC1=CCCC1=O
Second: CCCCCCCCCN(CCCCC)CCC(=O)O
The melting point of the first is lower: 41 to 43 °C for the first, 168 to 176 °C for the second.

Compared with `CC1CC(=O)NN=C1c1ccc(Nc2nc(=O)c3ccccc3[nH]2)cc1` (stereo unspecified), `Cc1ccc(S(=O)(=O)NNC2=CC(=O)CC(c3ccccc3Cl)C2)cc1` (stereo unspecified) is lower in melting point: 313 to 319 °C for the first, 235 to 236 °C for the second.

Compared with `Cc1oc(-c2ccc3ccccc3c2)nc1COc1ccc(COc2ncccc2C#N)cc1`, `O=C(O)C(=O)c1ccc(OCCCCOc2ccc3ccccc3c2)cc1` is lower in melting point: 145 to 146 °C for the first, 133 to 135 °C for the second.

Going from `COCc1c(C(=O)c2ccccc2)ncc2[nH]c3ccc(O)cc3c12` to `COc1ccc2ccc(NC(=O)c3ccccc3)nc2n1`, the melting point falls from 258 °C to 134 °C.

Compared with `CCOC(=O)CC=NCC(O)COc1ccccc1C#N` (stereo unspecified), `COC(=O)CC(NC(C)=O)c1ccccc1` (stereo unspecified) is lower in melting point: 120 °C for the first, 58 to 67 °C for the second.

Compared with `CC1(C)OC(=S)Nc2ccc(Br)cc21`, `Brc1ccc2sc3ccccc3c2c1` is lower in melting point: 221 to 222 °C for the first, 112 to 116 °C for the second.

First: OCc1ccc(-c2ncn(-c3ccc(OC(F)(F)F)cc3)n2)cc1
Second: Nc1nc(N)nc(-c2ccc(Oc3ccccc3)cc2)n1
The melting point of the first is lower: 112 to 114 °C for the first, 198 to 200 °C for the second.

First: CCCCCCCCCCCCCCCCOC[C@H]1CCO[C@H](c2ccccc2)O1
Second: c1ccc(Cc2ccccc2C2CCN(CCCOc3ccccc3)CC2)cc1
The melting point of the first is lower: 51 to 54 °C for the first, 139 to 140 °C for the second.

First: O=C(CC[N+](=O)[O-])c1ccccc1
Second: CCc1cc(C(=O)Nc2ccccc2)on1
The melting point of the first is lower: 59 to 62 °C for the first, 122 to 124 °C for the second.

First: Cc1nc(Cl)c2c(c1O)COC2(c1ccccc1)c1ccccc1
Second: CCCN1C(=O)N2CC(Cc3ccccc3)N=C2c2[nH]c(C(OC)c3ccccc3)nc21 (stereo unspecified)
The melting point of the first is higher: 240 °C for the first, 160 to 162 °C for the second.

First: O=c1ccc(-c2c(-c3ccccc3)nn3ccccc23)nn1C1CCCCC1=Cc1nnn[nH]1 (stereo unspecified)
Second: O=C(Nc1ccc(C(=O)N2C[C@@H]3CCCN3C(=O)c3ccccc32)cc1)c1ccccc1-c1ccccc1
The melting point of the first is lower: 129 to 131 °C for the first, 233 to 235 °C for the second.

First: CC(C)CC(NC(=O)N1CCc2cc(S(=O)(=O)N3CCN(c4cccc(Cl)c4)CC3)ccc21)C(=O)O (stereo unspecified)
Second: O=C(O)C1CCN(S(=O)(=O)c2ccc(Br)cc2)CC1
The melting point of the first is lower: 138 to 140 °C for the first, 225 to 227 °C for the second.

Compared with `O=C1OCCC1N1CCCC1=O` (stereo unspecified), `O=C(O)[C@@H]1CCCN1C(=O)CCBr` is higher in melting point: 80 to 81 °C for the first, 83 to 85 °C for the second.

Compared with `CCC(CC)Oc1cc(C)nc2c1CCC(=O)N2c1c(C)cc(C)cc1C`, `CCCC(=O)Nc1c(C)c(C)c2c(c1C)C(c1ccc(C(C)C)cc1)CO2` (stereo unspecified) is higher in melting point: 138 to 140 °C for the first, 177 to 178 °C for the second.

First: CON=CCCCn1c(C)nc2c(N)nc3ccccc3c21
Second: COc1c2nc3ccccc3sc-2c(C)c(=O)c1OC
The melting point of the first is higher: 153 to 155 °C for the first, 138 °C for the second.

Compared with `COCOc1cc(C(=O)O)ccc1-c1ccc(-c2ccccc2)c(-c2ccc3c(c2)C(C)(C)CCC3(C)C)c1`, `CC(C)(C)OC(=O)Nc1ccc(-c2ccc(OCc3ccccc3)nc2)cc1NC(=O)CC(=O)c1cccc(-n2ccnc2)c1` is lower in melting point: 122 °C for the first, 79 to 83 °C for the second.

First: Cc1nn(C)c(N)c1C(=O)Nc1ccccc1C(C)C
Second: CC(=O)c1cc(OCc2ccccc2)cc(NC(=O)C(C)(C)Br)c1O
The melting point of the first is higher: 144 to 146 °C for the first, 88 to 90 °C for the second.

Compared with `FC(F)(F)c1ccc(C=Cc2nc(CNc3ccc(CCCCn4ccnn4)cc3)co2)cc1`, `COC(=O)C(Oc1ccc(C(F)(F)F)cc1)c1ccc(OCCOc2ccc(Cl)cc2)cc1` (stereo unspecified) is lower in melting point: 113 to 115 °C for the first, 95 to 97 °C for the second.

Compared with `COc1ccc(-c2ccc(C(=O)Nc3ccc4cc(CN5CCCC5)cnc4c3)cc2)cc1`, `O=C(O)c1cccc(-c2cccc3c2CCN(Cc2cccc(C(F)(F)F)c2)C3)c1` is higher in melting point: 202 to 204 °C for the first, 230 to 231 °C for the second.

Compared with `CC(C)c1nsc(N=C(F)N(C)C)c1C#N`, `Cc1c(-c2ccccc2)nnc(N(C)C)c1C` is lower in melting point: 100 to 102 °C for the first, 86 to 89 °C for the second.

First: CC(=O)Nc1ncc2ncn(COC(COC(C)C)COC(C)C)c2n1
Second: CCCCc1nc(Cl)c(CC(=O)OCC)c(Cc2ccc(-c3ccccc3-c3nnn[nH]3)cc2)n1
The melting point of the first is lower: 85 to 86 °C for the first, 160 °C for the second.

Compared with `O=C(c1cccs1)C1(c2ccc(Cl)cc2)CCC1`, `CCOC(Nc1ccccc1)(OCC)C1(Cl)C=C(C)N=C(C(=O)c2ccc(Cl)cc2)C1` (stereo unspecified) is higher in melting point: 74 to 76 °C for the first, 134 to 135 °C for the second.

First: O=c1ccc2cnc(Nc3ccccc3)nc2n1CCCOc1ccccc1
Second: NCCCNC(c1ccccc1)(c1ccccc1)c1ccccc1
The melting point of the first is higher: 175 to 176 °C for the first, 59 to 61 °C for the second.

First: CCCS(=O)(=O)c1cccc(-c2nc(=O)c3ccccc3s2)n1
Second: O=C(O)CCc1ccnc(-c2nc(=O)c3ccc(Cl)cc3s2)c1
The melting point of the first is lower: 174 °C for the first, 263 to 264 °C for the second.

Compared with `O=C(c1cccnc1)C1COCOC1`, `COC(=O)c1cccc(OC(F)(F)C(F)Br)c1` (stereo unspecified) is lower in melting point: 91 to 100 °C for the first, 88 to 90 °C for the second.

First: CC(C)(C)OC(=O)COC1CCN(CC2CN(c3ccc(CN)cc3)C(=O)O2)CC1 (stereo unspecified)
Second: CCCCOC(=O)[C@H]1CN(c2ccc3c(c2)sc(=O)n3C)C(=O)O1
The melting point of the first is higher: 95 to 96 °C for the first, 85 to 87 °C for the second.

Compared with `Cc1cc(O)c(S(=O)C23CC4CC(CC(C4)C2)C3)c(=O)o1` (stereo unspecified), `CC1(C2CCCC2)Cc2cc(O)c(Cl)c(Cl)c2C1=O` (stereo unspecified) is higher in melting point: 174 °C for the first, 190 to 194 °C for the second.

Compared with `COc1ccc2c(c1)c(CCC(=O)O)cn2S(=O)(=O)c1ccc(C)cc1`, `CCn1cc(C(=O)NN)c(=O)c2ccc(-c3ccccc3)cc21` is higher in melting point: 172 to 174 °C for the first, 243 to 244 °C for the second.

First: NC(=O)c1ccc(F)c2c1OCC(N)C2 (stereo unspecified)
Second: CSc1ccc(/C=C2/C(C)=C(C(C)N(O)C(N)=O)c3cc(F)ccc32)cc1 (stereo unspecified)
The melting point of the first is lower: 128 °C for the first, 150 to 152 °C for the second.

First: Cn1c2cc(O)c(O)cc2c2cc(O)c(O)cc21
Second: CCN(CC)c1ccc2c(c1)Oc1cc(OC(C)=O)c3ccccc3c1N2C(C)=O
The melting point of the first is higher: > 270 °C for the first, 64 to 72 °C for the second.

First: Cc1cccc(N(C)C(=O)NC2N=C(c3ccccc3F)c3ccccc3N(CC(=O)N3CC4CCC(CC4)C3)C2=O)c1 (racemic)
Second: CC(=O)c1ccc(C(=O)N2Cc3cccn3Cc3ccccc32)cc1
The melting point of the first is higher: 207 to 212 °C for the first, 135 to 137 °C for the second.

First: O=C1NC(=O)c2c1c(-c1ccccc1Cl)cc1oc3cc(CCCCO)c(O)cc3c21
Second: CCc1nc2c(C)cc(C)nc2n1Cc1ccc(-c2ccccc2-c2c(N(C)C)c(=O)c2=O)cc1
The melting point of the first is higher: 256 to 259 °C for the first, 140 to 142 °C for the second.

Compared with `C[C@H](NC(=O)OC(C)(C)C)C(=O)N[C@H](CCC(=O)O)C(N)=O`, `CC(=O)N[C@H](CF)CCC(=O)O` is lower in melting point: 98 °C for the first, 80 to 83 °C for the second.

First: NS(=O)(=O)c1ccc(-c2noc(-c3cnn4c(C(F)(F)F)cc(-c5ccc(Cl)cc5)nc34)n2)cc1
Second: Fc1ccc(-c2nc(C(F)(F)F)nc(Cl)c2-c2ccccc2)cc1
The melting point of the first is higher: 296 °C for the first, 67 to 68 °C for the second.

Compared with `N#Cc1cccc(NC(=O)NC2N=C(CN3CCOCC3)c3ccccc3NC2=O)c1` (stereo unspecified), `CC(=O)OC1CSC(Oc2cncc(-c3cccc(C#N)c3)c2)C(OC(C)=O)C1OC(C)=O` (stereo unspecified) is lower in melting point: 249 to 250 °C for the first, 130 to 131 °C for the second.

Compared with `COC(=O)CSCCn1cc(C)c(=O)[nH]c1=O`, `CSc1nc(=O)n(C)c(=O)[nH]1` is higher in melting point: 75 °C for the first, 243 to 244 °C for the second.

First: CC(C)(C)OC(=O)[C@@H](N)Cc1ccc(O)c(I)c1
Second: CN(C)C(=O)COc1cc(Cl)ccc1C(=O)NCCN1CCN(C(=O)OC(C)(C)C)CC1
The melting point of the first is higher: 158 to 159 °C for the first, 139 to 140 °C for the second.

Compared with `CC(c1ccccc1)c1n[nH]c2c1c(=O)n(-c1cccc(C(F)(F)F)c1)c1ncccc21` (stereo unspecified), `CC(NC=O)c1ccc(Nc2nccc(-c3cccnc3)n2)cc1` (stereo unspecified) is lower in melting point: 235 to 237 °C for the first, 118 to 121 °C for the second.

First: COCc1cccc(C(O)c2nc(OC)cc(OC)n2)c1N (stereo unspecified)
Second: COC(=O)C1=C(C)NC(c2scnc2C)=NC1c1ccc(F)cc1Cl (stereo unspecified)
The melting point of the first is lower: 40 to 42 °C for the first, 145 to 147 °C for the second.

First: OCCc1c[nH]c2ccc(F)cc12
Second: CCOC(=O)c1c[nH]c2c(=O)ccc(NC(=O)CC)cc2c1=O
The melting point of the first is lower: 59 to 61 °C for the first, > 250 °C for the second.

Compared with `COc1ccccc1Oc1c(NS(=O)(=O)c2ccc3c(c2)OCO3)nc(-c2ccnc(-c3nnn[nH]3)c2)nc1OCCO`, `O=C(O)CCC(=O)N1Cc2c(cc3ccc4c(c3c2-c2ccc3c(c2)OCO3)OCO4)C1=O` is higher in melting point: 227 to 229 °C for the first, 231 to 233 °C for the second.

First: CCCC(C)(C)NC(=O)NC1=CC(=O)OC1
Second: CCOc1cc2c(cc1O[Si](C)(C)C(C)(C)C)C(=O)CC1C2CCC2(C)C(O[Si](C)(C)C(C)(C)C)CCC12 (stereo unspecified)
The melting point of the first is lower: 130 to 132 °C for the first, 150 to 151 °C for the second.

First: COc1ccc(C=Cc2ccc(C#N)cc2)cc1
Second: N#CC1CCn2c(cc3ccccc32)C1 (stereo unspecified)
The melting point of the first is higher: 146 to 148 °C for the first, 116 to 118 °C for the second.

First: N#CNC(=NCCN1CCC(C(=O)c2ccc(F)cc2)CC1)N1CCCCC1
Second: O=C1CC(c2ccccc2)Cc2[nH]c3c(c21)CCCC3 (stereo unspecified)
The melting point of the first is lower: 139 to 141 °C for the first, 257 to 259 °C for the second.

Compared with `O=S(=O)(O)CCCNC1CCCC1`, `O=C1CCC(=O)N1Cc1nc2sc3c(c2c(-c2ccc(O)cc2)c1Cl)CCNC3` is higher in melting point: 280 to 282 °C for the first, 286 to 287 °C for the second.

First: Cc1ccc(-n2cnnc2C(F)(F)F)c(C)c1
Second: COC(=O)c1nn(-c2c(Cl)cc(C(F)(F)F)cc2Cl)c(OC)c1SC(F)(F)F
The melting point of the first is lower: 77 °C for the first, 97 to 98 °C for the second.

`CC=CCN1c2cc(Cl)ccc2NC(=O)[C@@H]1C` showed a melting point of 87 to 88 °C.

— a melting point compilation (Tetko et al.; mined from patent text by program, amines drawn as free bases though some values may be those of a salt)
